{"source": "the NIST ThermoML archive (doi:10.1016/j.jct.2007.09.009)", "experiment": "xn = mol fraction of the nth substance listed", "conditions": "313.15 K, 101 kPa, Liquid, Direct dilatometry", "note": "Where “and” joins values, the source holds several entries; their conditions need not be identical. Equal values may be shown once. Numbers after ± are expanded uncertainties.", "data": [{"smiles": "CC(=O)N(C)C", "note": "[N,N-dimethylethanamide] + O", "values": [{"measurement": "excess molar volume", "setting": "x1 = 0.0092", "value": "-3.79e-08 ± 3.2e-09", "unit": "m3/mol"}, {"measurement": "excess molar volume", "setting": "x1 = 0.0196", "value": "-8.59e-08 ± 3.2e-09", "unit": "m3/mol"}, {"measurement": "excess molar volume", "setting": "x1 = 0.03", "value": "-1.402e-07 ± 3.3e-09", "unit": "m3/mol"}, {"measurement": "excess molar volume", "setting": "x1 = 0.0556", "value": "-2.881e-07 ± 3.5e-09", "unit": "m3/mol"}, {"measurement": "excess molar volume", "setting": "x1 = 0.0704", "value": "-3.778e-07 ± 3.6e-09", "unit": "m3/mol"}, {"measurement": "excess molar volume", "setting": "x1 = 0.0823", "value": "-4.496e-07 ± 3.7e-09", "unit": "m3/mol"}, {"measurement": "excess molar volume", "setting": "x1 = 0.0853", "value": "-4.67e-07 ± 3.6e-09", "unit": "m3/mol"}, {"measurement": "excess molar volume", "setting": "x1 = 0.091", "value": "-4.98e-07 ± 3.7e-09", "unit": "m3/mol"}, {"measurement": "excess molar volume", "setting": "x1 = 0.0968", "value": "-5.344e-07 ± 3.8e-09", "unit": "m3/mol"}, {"measurement": "excess molar volume", "setting": "x1 = 0.0981", "value": "-5.428e-07 ± 3.8e-09", "unit": "m3/mol"}, {"measurement": "excess molar volume", "setting": "x1 = 0.1063", "value": "-5.918e-07 ± 3.8e-09", "unit": "m3/mol"}, {"measurement": "excess molar volume", "setting": "x1 = 0.1088", "value": "-6.146e-07 ± 3.8e-09", "unit": "m3/mol"}, {"measurement": "excess molar volume", "setting": "x1 = 0.1167", "value": "-6.527e-07 ± 3.8e-09", "unit": "m3/mol"}, {"measurement": "excess molar volume", "setting": "x1 = 0.1258", "value": "-7.063e-07 ± 3.9e-09", "unit": "m3/mol"}, {"measurement": "excess molar volume", "setting": "x1 = 0.1364", "value": "-7.653e-07 ± 3.9e-09", "unit": "m3/mol"}, {"measurement": "excess molar volume", "setting": "x1 = 0.1478", "value": "-8.283e-07 ± 4e-09", "unit": "m3/mol"}, {"measurement": "excess molar volume", "setting": "x1 = 0.1603", "value": "-8.946e-07 ± 4e-09", "unit": "m3/mol"}, {"measurement": "excess molar volume", "setting": "x1 = 0.1651", "value": "-9.21e-07 ± 4e-09", "unit": "m3/mol"}, {"measurement": "excess molar volume", "setting": "x1 = 0.1728", "value": "-9.553e-07 ± 4.1e-09 m3/mol and -9.577e-07 ± 4.1e-09 m3/mol"}, {"measurement": "excess molar volume", "setting": "x1 = 0.1851", "value": "-1.017e-06 ± 4.1e-09", "unit": "m3/mol"}, {"measurement": "excess molar volume", "setting": "x1 = 0.1902", "value": "-1.039e-06 ± 4.1e-09", "unit": "m3/mol"}, {"measurement": "excess molar volume", "setting": "x1 = 0.2039", "value": "-1.098e-06 ± 4.2e-09", "unit": "m3/mol"}, {"measurement": "excess molar volume", "setting": "x1 = 0.2221", "value": "-1.172e-06 ± 4.2e-09", "unit": "m3/mol"}, {"measurement": "excess molar volume", "setting": "x1 = 0.2379", "value": "-1.229e-06 ± 4.3e-09", "unit": "m3/mol"}, {"measurement": "excess molar volume", "setting": "x1 = 0.2514", "value": "-1.273e-06 ± 4.3e-09", "unit": "m3/mol"}, {"measurement": "excess molar volume", "setting": "x1 = 0.2642", "value": "-1.315e-06 ± 4.3e-09", "unit": "m3/mol"}, {"measurement": "excess molar volume", "setting": "x1 = 0.2665", "value": "-1.318e-06 ± 4.3e-09", "unit": "m3/mol"}, {"measurement": "excess molar volume", "setting": "x1 = 0.2718", "value": "-1.334e-06 ± 4.4e-09", "unit": "m3/mol"}, {"measurement": "excess molar volume", "setting": "x1 = 0.2773", "value": "-1.349e-06 ± 4.4e-09", "unit": "m3/mol"}, {"measurement": "excess molar volume", "setting": "x1 = 0.2787", "value": "-1.35e-06 ± 4.4e-09", "unit": "m3/mol"}, {"measurement": "excess molar volume", "setting": "x1 = 0.2883", "value": "-1.374e-06 ± 4.4e-09", "unit": "m3/mol"}, {"measurement": "excess molar volume", "setting": "x1 = 0.2987", "value": "-1.397e-06 ± 4.4e-09", "unit": "m3/mol"}, {"measurement": "excess molar volume", "setting": "x1 = 0.31", "value": "-1.418e-06 ± 4.4e-09", "unit": "m3/mol"}, {"measurement": "excess molar volume", "setting": "x1 = 0.3216", "value": "-1.44e-06 ± 4.5e-09", "unit": "m3/mol"}, {"measurement": "excess molar volume", "setting": "x1 = 0.3377", "value": "-1.463e-06 ± 4.5e-09", "unit": "m3/mol"}, {"measurement": "excess molar volume", "setting": "x1 = 0.352", "value": "-1.479e-06 ± 4.5e-09", "unit": "m3/mol"}, {"measurement": "excess molar volume", "setting": "x1 = 0.3679", "value": "-1.493e-06 ± 4.5e-09", "unit": "m3/mol"}, {"measurement": "excess molar volume", "setting": "x1 = 0.3759", "value": "-1.501e-06 ± 4.5e-09", "unit": "m3/mol"}, {"measurement": "excess molar volume", "setting": "x1 = 0.3782", "value": "-1.499e-06 ± 4.5e-09", "unit": "m3/mol"}, {"measurement": "excess molar volume", "setting": "x1 = 0.3812", "value": "-1.502e-06 ± 4.5e-09", "unit": "m3/mol"}, {"measurement": "excess molar volume", "setting": "x1 = 0.3884", "value": "-1.506e-06 ± 4.5e-09", "unit": "m3/mol"}, {"measurement": "excess molar volume", "setting": "x1 = 0.3918", "value": "-1.505e-06 ± 4.5e-09", "unit": "m3/mol"}, {"measurement": "excess molar volume", "setting": "x1 = 0.3948", "value": "-1.508e-06 ± 4.5e-09", "unit": "m3/mol"}, {"measurement": "excess molar volume", "setting": "x1 = 0.4047", "value": "-1.511e-06 ± 4.5e-09", "unit": "m3/mol"}, {"measurement": "excess molar volume", "setting": "x1 = 0.4141", "value": "-1.511e-06 ± 4.5e-09", "unit": "m3/mol"}, {"measurement": "excess molar volume", "setting": "x1 = 0.4248", "value": "-1.511e-06 ± 4.5e-09", "unit": "m3/mol"}, {"measurement": "excess molar volume", "setting": "x1 = 0.4402", "value": "-1.507e-06 ± 4.5e-09", "unit": "m3/mol"}, {"measurement": "excess molar volume", "setting": "x1 = 0.4583", "value": "-1.497e-06 ± 4.5e-09", "unit": "m3/mol"}, {"measurement": "excess molar volume", "setting": "x1 = 0.47", "value": "-1.489e-06 ± 4.5e-09", "unit": "m3/mol"}, {"measurement": "excess molar volume", "setting": "x1 = 0.4759", "value": "-1.487e-06 ± 4.5e-09", "unit": "m3/mol"}, {"measurement": "excess molar volume", "setting": "x1 = 0.4881", "value": "-1.473e-06 ± 4.5e-09", "unit": "m3/mol"}, {"measurement": "excess molar volume", "setting": "x1 = 0.4976", "value": "-1.464e-06 ± 4.5e-09", "unit": "m3/mol"}, {"measurement": "excess molar volume", "setting": "x1 = 0.5257", "value": "-1.43e-06 ± 4.4e-09", "unit": "m3/mol"}, {"measurement": "excess molar volume", "setting": "x1 = 0.5546", "value": "-1.38e-06 ± 4.4e-09", "unit": "m3/mol"}, {"measurement": "excess molar volume", "setting": "x1 = 0.5961", "value": "-1.295e-06 ± 4.3e-09", "unit": "m3/mol"}, {"measurement": "excess molar volume", "setting": "x1 = 0.6483", "value": "-1.173e-06 ± 4.2e-09", "unit": "m3/mol"}, {"measurement": "excess molar volume", "setting": "x1 = 0.6819", "value": "-1.082e-06 ± 4.1e-09", "unit": "m3/mol"}, {"measurement": "excess molar volume", "setting": "x1 = 0.7273", "value": "-9.449e-07 ± 4e-09", "unit": "m3/mol"}, {"measurement": "excess molar volume", "setting": "x1 = 0.732", "value": "-9.375e-07 ± 4e-09", "unit": "m3/mol"}, {"measurement": "excess molar volume", "setting": "x1 = 0.755", "value": "-8.613e-07 ± 3.9e-09", "unit": "m3/mol"}, {"measurement": "excess molar volume", "setting": "x1 = 0.7743", "value": "-8.015e-07 ± 3.9e-09", "unit": "m3/mol"}, {"measurement": "excess molar volume", "setting": "x1 = 0.7939", "value": "-7.378e-07 ± 3.8e-09", "unit": "m3/mol"}, {"measurement": "excess molar volume", "setting": "x1 = 0.8089", "value": "-6.896e-07 ± 3.7e-09", "unit": "m3/mol"}, {"measurement": "excess molar volume", "setting": "x1 = 0.8158", "value": "-6.653e-07 ± 3.7e-09", "unit": "m3/mol"}, {"measurement": "excess molar volume", "setting": "x1 = 0.8331", "value": "-6.07e-07 ± 3.7e-09", "unit": "m3/mol"}, {"measurement": "excess molar volume", "setting": "x1 = 0.8622", "value": "-5.075e-07 ± 3.6e-09", "unit": "m3/mol"}, {"measurement": "excess molar volume", "setting": "x1 = 0.8823", "value": "-4.342e-07 ± 3.6e-09", "unit": "m3/mol"}, {"measurement": "excess molar volume", "setting": "x1 = 0.884", "value": "-4.256e-07 ± 3.6e-09", "unit": "m3/mol"}, {"measurement": "excess molar volume", "setting": "x1 = 0.9064", "value": "-3.494e-07 ± 3.4e-09", "unit": "m3/mol"}, {"measurement": "excess molar volume", "setting": "x1 = 0.9258", "value": "-2.754e-07 ± 3.3e-09", "unit": "m3/mol"}, {"measurement": "excess molar volume", "setting": "x1 = 0.9539", "value": "-1.863e-07 ± 3.7e-09", "unit": "m3/mol"}, {"measurement": "excess molar volume", "setting": "x1 = 0.9568", "value": "-1.596e-07 ± 3.7e-09", "unit": "m3/mol"}, {"measurement": "excess molar volume", "setting": "x1 = 0.9716", "value": "-1.062e-07 ± 3.2e-09", "unit": "m3/mol"}]}]}
